Experimental findings from patent publication US20140350081A1, “INSECT G-COUPLED RECEPTORS USEFUL AS TARGETS FOR INSECTICIDES AND COMPOUNDS AND REAGENTS IDENTIFIED USING THE SAME” (priority 2011, published 2014) are described below.

Where a name gives a salt, the structure may show the parent alone.

AaDOP2, sequence (H6D5H2 entry or part of it): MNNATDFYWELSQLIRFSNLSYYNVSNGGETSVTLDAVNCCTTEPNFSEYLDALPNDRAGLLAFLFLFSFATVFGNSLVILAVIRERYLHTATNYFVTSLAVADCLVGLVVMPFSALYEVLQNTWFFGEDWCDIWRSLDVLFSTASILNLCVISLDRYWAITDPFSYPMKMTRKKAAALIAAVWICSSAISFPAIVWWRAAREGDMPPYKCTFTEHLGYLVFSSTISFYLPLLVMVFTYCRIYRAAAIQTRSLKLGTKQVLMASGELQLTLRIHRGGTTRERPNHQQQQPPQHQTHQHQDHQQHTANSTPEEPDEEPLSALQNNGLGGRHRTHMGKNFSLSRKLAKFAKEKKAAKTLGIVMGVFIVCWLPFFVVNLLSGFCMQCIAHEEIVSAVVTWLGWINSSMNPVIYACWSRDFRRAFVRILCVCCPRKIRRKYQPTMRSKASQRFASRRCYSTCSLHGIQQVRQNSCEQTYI

The first assay deals with Isdop2 (Ixodes scapularis, UniProt A0ACM8DGL0). The experiment in a line: cell-based.
Isdop2, sequence (A0ACM8DGL0 entry or part of it): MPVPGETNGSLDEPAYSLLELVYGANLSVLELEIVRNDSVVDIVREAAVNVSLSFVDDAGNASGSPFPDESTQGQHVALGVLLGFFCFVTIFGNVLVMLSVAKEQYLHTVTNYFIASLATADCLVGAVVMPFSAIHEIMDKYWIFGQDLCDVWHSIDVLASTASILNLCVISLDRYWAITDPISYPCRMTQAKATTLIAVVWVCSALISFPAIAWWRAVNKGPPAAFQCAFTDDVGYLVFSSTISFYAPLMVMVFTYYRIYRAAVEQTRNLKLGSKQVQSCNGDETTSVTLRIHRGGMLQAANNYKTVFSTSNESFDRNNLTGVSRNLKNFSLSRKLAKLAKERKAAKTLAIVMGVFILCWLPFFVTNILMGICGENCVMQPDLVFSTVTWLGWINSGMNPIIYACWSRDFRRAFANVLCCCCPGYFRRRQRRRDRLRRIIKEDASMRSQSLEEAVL
Settings: not given
Consider `CC(C)(C)c1cc(/C=C(\C#N)C(N)=S)cc(C(C)(C)C)c1O` [Tyrphostin AG 879], for which the “% Inhibition (of response to dopamine), Isdop2 screen” value (from here on “% Inhibition”) was 75%. Turning to `O=C(N[C@@H](Cc1ccccc1)C(=O)CCl)OCc1ccccc1` [Z-L-Phe chloromethyl ketone], the “% Inhibition” value was found to be 90%.

With (±)-Butaclamol hydrochloride, the “% Inhibition” value was determined as 86%.

The assay is the same for the next values; noted with them: 10 μM compound, footnote 3 mM dopamine.
As to `CC(C)(C)c1cc(C=C(C#N)C#N)cc(C(C)(C)C)c1O` [Tyrphostin A9], the “% Inhibition” value is given as 87%.

The same assay, now with this note: read-out: % Inhibition (of response to dopamine), Isdop2 screen.
For orientation: inhibition means the relative decrease from the control value, in per cent. With `CN1CCN(CCCN2c3ccccc3Sc3ccc(C(F)(F)F)cc32)CC1` [Trifluoperazine, 10-[3-(4-methylpiperazin-1-yl)propyl]-2-(trifluoromethyl)-10H-phenothiazine], the inhibition at 10 µM is 76%.

The next assay addresses AaDOP2 (Aedes aegypti, UniProt H6D5H2). The experiment in a line: HTRF cAMP accumulation concentration response assay (Cisbio Dynamic 2). It is filed as cell-based.
Settings: not given
A general note: TR-FRET usually uses a lanthanide donor and a delayed reading to cut background.
The term IC50 denotes the concentration at which inhibition is half-maximal. With `CN1CCCC(n2nc(Cc3ccc(Cl)cc3)c3ccccc3c2=O)CC1` (stereo not shown) [Azelastine HCl, 4-[(4-chlorophenyl)methyl]-2-(1-methylazepan-4-yl)phthalazin-1-one hydrochloride], the half-inhibitory concentration (IC50) worked out at 47500 nM.

The assay is the same for the next values; noted with them: AaDOP2 expressing cells in the presence of dopamine; No Inhibition = <10% inhibition at 3 μM test compound.
For `Cc1ccc(/N=C/N(C)/C=N/c2ccc(C)cc2C)c(C)c1` [Amitraz], the “IC50 ± S.E.M. (nM), HTRF cAMP assay” value is reported as “No Inhibition^a”. As to `O=C1CC2(CCCC2)CC(=O)N1CCCCN1CCN(c2ncccn2)CC1` [Buspirone], the “IC50 ± S.E.M. (nM), HTRF cAMP assay” value was “No Inhibition^a”.

Still in this assay, the particulars now being: AaDOP2 expressing cells in the presence of dopamine; No Inhibition = <10% inhibition at 3 μM test compound; read-out: IC50 ± S.E.M. (nM), HTRF cAMP assay.
With `Cc1nc2sccn2c(=O)c1CCN1CCC(=C(c2ccccc2)c2ccc(F)cc2)CC1` [Compound R59-022], the IC50 was 53 ± 13 nM.

Staying with this assay, now noted: Avg IC50 (μM), in vitro Concentration Response Curve assay, n = 2, relative to control antagonist Amitriptyline.
On to `COc1ccccc1OCCNCC(O)COc1cccc2[nH]c3ccccc3c12` (stereo not shown) [Carvedilol, 1-(9H-Carbazol-4-yloxy)-3-[[2-(2-methoxyphenoxy)ethyl]amino]-2-propanol], for which the concentration for half-maximal inhibition (IC50) is 8500 nM.

The same assay, now with this note: in vitro Concentration Response Curve assay, n = 2, relative to control antagonist Amitriptyline; read-out: Avg IC50.
Take `CC(COc1ccccc1Cc1ccccc1)N1CCCCC1` (racemic) [Benproperine phosphate, (RS)-1-[2-(2-benzylphenoxy)-1-methylethyl]piperidine]: the IC50 turned out to be 4510 nM.

With `CCC(=O)Nc1ccc(Nc2nc(C)cc(Nc3ccccc3)n2)cc1` [Compound G869-0096, N-(4-((4-methyl-6-(phenylamino)pyrimidin-2-yl)amino)phenyl)propionamide], the concentration for half-maximal inhibition (IC50) stood at 4740 nM. Consider `CCCC(=O)Nc1ccc(Nc2nc(C)cc(Nc3ccccc3)n2)cc1` [Compound G869-0097, N-(4-((4-methyl-6-(phenylamino)pyrimidin-2-yl)amino)phenyl)butyramide], for which the IC50 turned out to be 6050 nM. On the same count and under the same terms, the value for `Cc1cc(Nc2ccccc2)nc(Nc2ccc(NC(=O)C(C)C)cc2)n1` [Compound G869-0098, N-(4-((4-methyl-6-(phenylamino)pyrimidin-2-yl)amino)phenyl)isobutyramide] was 3100 nM; that for `CCCCC(=O)Nc1ccc(Nc2nc(C)cc(Nc3ccccc3)n2)cc1` [Compound G869-0099, N-(4-((4-methyl-6-(phenylamino)pyrimidin-2-yl)amino)phenyl)pentanamide] was 5950 nM; that for `Cc1cc(Nc2ccccc2)nc(Nc2ccc(NC(=O)C(C)(C)C)cc2)n1` [Compound G869-0100, N-(4-((4-methyl-6-(phenylamino)pyrimidin-2-yl)amino)phenyl)pivalamide] was 2080 nM.

Regarding `Cc1cc(Nc2ccccc2)nc(Nc2ccc(NC(=O)CC(C)C)cc2)n1` [Compound G869-0101, 3-methyl-N-(4-((4-methyl-6-(phenylamino)pyrimidin-2-yl)amino)phenyl)butanamide], the IC50 turned out to be 5500 nM. Turning to `Cc1cc(Nc2ccccc2)nc(Nc2ccc(NC(=O)C3CCCCC3)cc2)n1` [Compound G869-0105, N-(4-((4-methyl-6-(phenylamino)pyrimidin-2-yl)amino)phenyl)cyclohexanecarboxamide], the concentration for half-maximal inhibition (IC50) came to 11600 nM. Consider `COc1cc(OC)cc(C(=O)Nc2ccc(Nc3nc(C)cc(Nc4ccccc4)n3)cc2)c1` [Compound G869-0121, 3,5-dimethoxy-N-(4-((4-methyl-6-(phenylamino)pyrimidin-2-yl)amino)phenyl)benzamide], for which the 50% inhibitory concentration (IC50) stood at 2220 nM.

On to `Cc1cc(Nc2ccccc2)nc(Nc2ccc(NC(=O)c3ccccc3Cl)cc2)n1` [Compound G869-0127, 2-chloro-N-(4-((4-methyl-6-(phenylamino)pyrimidin-2-yl)amino)phenyl)benzamide], for which the half-inhibitory concentration (IC50) was 7510 nM.

As for `COc1ccc(Nc2cc(C)nc(Nc3ccc(NC(C)=O)cc3)n2)cc1` [Compound G869-0268, N-(4-((4-((4-methoxyphenyl)amino)-6-methylpyrimidin-2-yl)amino)phenyl)acetamide], the IC50 is 13200 nM. For the molecule `COc1ccc(Nc2cc(C)nc(Nc3ccc(NC(=O)C(C)(C)C)cc3)n2)cc1` [Compound G869-0273, N-(4-((4-((4-methoxyphenyl)amino)-6-methylpyrimidin-2-yl)amino)phenyl)pivalamide], the IC50 came to 5090 nM. On the same count and under the same terms, the value for `COc1ccc(Nc2cc(C)nc(Nc3ccc(NC(=O)CC(C)(C)C)cc3)n2)cc1` [Compound G869-0275, N-(4-((4-((4-methoxyphenyl)amino)-6-methylpyrimidin-2-yl)amino)phenyl)-3,3-dimethylbutanamide] was 9020 nM; that for `COc1ccc(Nc2cc(C)nc(Nc3ccc(NC(=O)c4c(F)cccc4Cl)cc3)n2)cc1` [Compound G869-0304, 2-chloro-6-fluoro-N-(4-((4-((4-methoxyphenyl)amino)-6-methylpyrimidin-2-yl)amino)phenyl)benzamide] was 7170 nM; that for `Cc1cc(N2CCCC2)nc(Nc2ccc(NC(=O)c3ccccc3Br)cc2)n1` [Compound G869-0472, 2-bromo-N-(4-((4-methyl-6-(pyrrolidin-1-yl)pyrimidin-2-yl)amino)phenyl)benzamide] was 19400 nM.

On to `Cc1cc(N2CCCC2)nc(Nc2ccc(NC(=O)Cc3ccccc3)cc2)n1` [Compound G869-0499, N-(4-((4-methyl-6-(pyrrolidin-1-yl)pyrimidin-2-yl)amino)phenyl)-2-phenylacetamide], for which the 50% inhibitory concentration (IC50) is 9230 nM. The same measure, in the same setting: to `Cc1ccc(Nc2nc(N3CCN(C)CC3)nc3c2cnn3-c2ccccc2)cc1` [Compound G932-0029, 6-(4-methylpiperazin-1-yl)-1-phenyl-N-(p-tolyl)-1H-pyrazolo[3,4-d]pyrimidin-4-amine] belongs 4550 nM; to `Cc1ccccc1Nc1nc(N2CCN(C)CC2)nc2c1cnn2-c1ccccc1` [Compound G932-0129, 6-(4-methylpiperazin-1-yl)-1-phenyl-N-(o-tolyl)-1H-pyrazolo[3,4-d]pyrimidin-4-amine], 3490 nM; to `OCCN1CCN(c2nc(Nc3ccccc3)c3cnn(-c4ccccc4)c3n2)CC1` [Compound G932-0232, 2-(4-(1-phenyl-4-(phenylamino)-1H-pyrazolo[3,4-d]pyrimidin-6-yl)piperazin-1-yl)ethanol], 1170 nM. The same measure, in the same setting: the value for `CCN1CCN(c2nc(Nc3ccccc3)c3cnn(-c4ccccc4)c3n2)CC1` [Compound G932-0245, 6-(4-ethylpiperazin-1-yl)-N,1-diphenyl-1H-pyrazolo[3,4-d]pyrimidin-4-amine] was 557 nM; that for `CN1CCN(c2nc(Nc3ccc(F)cc3)c3cnn(-c4ccccc4)c3n2)CC1` [Compound G932-0329, N-(4-fluorophenyl)-6-(4-methylpiperazin-1-yl)-1-phenyl-1H-pyrazolo[3,4-d]pyrimidin-4-amine] was 2500 nM. With `CCN1CCN(c2nc(Nc3ccc(F)cc3)c3cnn(-c4ccccc4)c3n2)CC1` [Compound G932-0345, 6-(4-ethylpiperazin-1-yl)-N-(4-fluorophenyl)-1-phenyl-1H-pyrazolo[3,4-d]pyrimidin-4-amin], the concentration for half-maximal inhibition (IC50) was 4540 nM. `CCN(CC)CCNc1nc(Nc2ccc(Cl)cc2)c2cnn(-c3ccccc3)c2n1` [Compound G932-0372, N4-(4-chlorophenyl)-N6-(2-(diethylamino)ethyl)-1-phenyl-1H-pyrazolo[3,4-d]pyrimidine-4,6-diamine]: the IC50 was found to be 5130 nM. Take `CN1CCN(c2nc(Nc3ccc(Cl)cc3)c3cnn(-c4ccccc4)c3n2)CC1` [Compound G932-0379, N-(4-chlorophenyl)-6-(4-methylpiperazin-1-yl)-1-phenyl-1H-pyrazolo[3,4-d]pyrimidin-4-amine]: the IC50 worked out at 3980 nM. The same measure, in the same setting: to `COc1ccc(Nc2nc(N3CCN(C)CC3)nc3c2cnn3-c2ccccc2)cc1` [Compound G932-0529, N-(4-methoxyphenyl)-6-(4-methylpiperazin-1-yl)-1-phenyl-1H-pyrazolo[3,4-d]pyrimidin-4-amine] belongs 6870 nM. On the same count and under the same terms, to `CN1CCN(c2nc(Nc3cccc(F)c3)c3cnn(-c4ccccc4)c3n2)CC1` [Compound G932-0671, N-(3-fluorophenyl)-6-(4-methylpiperazin-1-yl)-1-phenyl-1H-pyrazolo[3,4-d]pyrimidin-4-amine] belongs 585 nM. On to `OCCN1CCN(c2nc(Nc3cccc(F)c3)c3cnn(-c4ccccc4)c3n2)CC1` [Compound G932-0674, 2-(4-(4-((3-fluorophenyl)amino)-1-phenyl-1H-pyrazolo[3,4-d]pyrimidin-6-yl)piperazin-1-yl)ethanol], for which the half-inhibitory concentration (IC50) was 1480 nM. Regarding `CCN1CCN(c2nc(Nc3cccc(F)c3)c3cnn(-c4ccccc4)c3n2)CC1` [Compound G932-0687, 6-(4-ethylpiperazin-1-yl)-N-(3-fluorophenyl)-1-phenyl-1H-pyrazolo[3,4-d]pyrimidin-4-amine], the IC50 stood at 769 nM. On the same count and under the same terms, the value for `CN1CCN(c2nc(Nc3ccc4c(c3)OCO4)c3cnn(-c4ccccc4)c3n2)CC1` [Compound G932-0818, N-(benzo[d][1,3]dioxol-5-yl)-6-(4-methylpiperazin-1-yl)-1-phenyl-1H-pyrazolo[3,4-d]pyrimidin-4-amine] was 1650 nM. The same measure, in the same setting: to `O=C(NCC1CCCCN1)c1cc(OCC(F)(F)F)ccc1OCC(F)(F)F` (stereo not shown) [Flecainide Acetate, N-(2-Piperidylmethyl)-2,5-bis-(2,2,2-trifluoroethoxy)benzamide acetate salt] belongs 318 nM.
